Patent US10100372B2, “Recombinant RSV reporter virus” (priority 2014, dated 2018)

Key:
[1] = test system: recRSV-L19FD489E-fireSMASh; type: cell-based
recRSV A2-L19F-ren = type: cell-based; conditions: GPAR-3710 added later than four hours post-infection; JMN3-003 added eight hours post-infection
recRSV A2-L19F-renilla = test: microbe, parasite or virus in culture; type: cell-based; conditions: human respiratory syncytial virus; 0.5 μM concentration counterscreens; read-out: RSV inhibition
[2] = test system: host cell metabolic activity; conditions: sourced compound
recRSV A2-L19F [3] = test: microbe, parasite or virus in culture; type: cell-based
[4] = test system: recRSV-L19FD489E-fireSMASh; type: cell-based, Respiratory Syncytial Virus; conditions: 10 μM; 96-well; BEAS-2B
recRSV A2-L19F [5] = type: cell-based; conditions: increasing compound concentrations
RSV F protein [6] = target: T1, RSV F protein (Human respiratory syncytial virus, UniProt P12568, E66K/H515N/I79M/K191R/N371Y/N80K/T101P/T357K/V557I); type: cell-based; conditions: plasmid-based reporter assay
T1 construct: expressed in transfected cells; host or cells: HEp-2 cells infected with recRSV A2-L19F-mKate2; F is expressed from the viral genome, not from a plasmid
T1 sequence (P12568 137-574, looked up, stated change not applied): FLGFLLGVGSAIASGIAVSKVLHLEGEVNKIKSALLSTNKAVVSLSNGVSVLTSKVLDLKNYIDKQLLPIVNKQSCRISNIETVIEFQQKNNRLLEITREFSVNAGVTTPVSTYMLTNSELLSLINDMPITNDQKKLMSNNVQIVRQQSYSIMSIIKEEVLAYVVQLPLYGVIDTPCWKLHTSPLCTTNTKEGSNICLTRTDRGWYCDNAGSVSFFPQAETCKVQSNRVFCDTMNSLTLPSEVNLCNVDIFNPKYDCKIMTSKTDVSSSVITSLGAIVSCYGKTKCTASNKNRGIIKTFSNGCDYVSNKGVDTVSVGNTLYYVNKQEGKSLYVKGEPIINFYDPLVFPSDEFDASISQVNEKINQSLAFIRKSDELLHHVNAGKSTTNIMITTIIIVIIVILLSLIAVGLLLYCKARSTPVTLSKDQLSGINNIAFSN
T1 sequence (P12568 26-109, looked up, stated change not applied): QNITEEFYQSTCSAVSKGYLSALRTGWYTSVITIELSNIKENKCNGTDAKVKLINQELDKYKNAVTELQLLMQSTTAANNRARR

RSV F protein [7] = target: T1, RSV F protein; type: cell-based

SMILES	effect on progeny virus titers ([1]; 3 μM ASV)	reduction of firefly luciferase activity ([1]; growth in the presence of 3 μM ASV)	antiviral activity in time-of-addition study (recRSV A2-L19F-ren)	inhibition at 0.5 µM (recRSV A2-L19F-renilla) [%]	cytotoxicity [2]	active concentrations against different RSV strains (recRSV A2-L19F [3]; dose-dependent inhibition of different RSV strains)	EC50 (recRSV A2-L19F [3]; human respiratory syncytial virus, active concentration based on in vitro assays, RSV entry inhibitor) [nM]	hit status in co-infection validation assay with pan-resistant RSV-FD489E [4]	RSV entry rate (recRSV A2-L19F [5])	RSV F protein-mediated membrane fusion activity (RSV F protein [6])	adaptation period until robust resistance (growth in 30 μM compound) (RSV F protein [7]; gradual adaptation to increasing compound concentrations) [days]	reported resistance sites (RSV F protein [7]; resistance sites in the RSV F protein, identified through viral adaptation)
C=C[C@@H]1C[C@]1(NC(=O)[C@@H]1C[C@@H](Oc2ncc(OC)c3ccc(Cl)cc23)CN1C(=O)[C@@H](NC(=O)OC(C)(C)C)C(C)(C)C)C(=O)NS(=O)(=O)C1CC1 [ASV, asunaprevir]	no effect	approximately 90%	–	–	–	–	–	–	–	–	–	–
Cc1ccc(-n2c(SCC(=O)N/N=C/c3c4ccccc4cc4ccccc34)nnc2-c2ccccc2)cc1 [GPAR-3710]	–	–	essentially all antiviral activity was lost	> 90	low cytotoxicity	nano- to low micromolar range	130	did not emerge as hits	significant, dose-dependent reduction	specifically and potently inhibited	≤ 30	FT400A FD401E FD486E FF488I FF488S FD489E
